Measured values from ChEMBL document CHEMBL4811286, “Novel 1,3,4-oxadiazole compounds inhibit the tyrosinase and melanin level: Synthesis, in-vitro, and in-silico studies” (Bioorg Med Chem, 2021).
Blank lines part the entries; values can stand above or below the molecule they belong to. The source made the active and inactive calls. The calls are words filed in the database; no cut-off is given here.

Experiments:
[1] = target: T1, Tyrosinase (Agaricus bisporus, UniProt O42713); experiment: Inhibition of mushroom tyrosinase using L-DOPA as substrate
T1 sequence (O42713 whole entry): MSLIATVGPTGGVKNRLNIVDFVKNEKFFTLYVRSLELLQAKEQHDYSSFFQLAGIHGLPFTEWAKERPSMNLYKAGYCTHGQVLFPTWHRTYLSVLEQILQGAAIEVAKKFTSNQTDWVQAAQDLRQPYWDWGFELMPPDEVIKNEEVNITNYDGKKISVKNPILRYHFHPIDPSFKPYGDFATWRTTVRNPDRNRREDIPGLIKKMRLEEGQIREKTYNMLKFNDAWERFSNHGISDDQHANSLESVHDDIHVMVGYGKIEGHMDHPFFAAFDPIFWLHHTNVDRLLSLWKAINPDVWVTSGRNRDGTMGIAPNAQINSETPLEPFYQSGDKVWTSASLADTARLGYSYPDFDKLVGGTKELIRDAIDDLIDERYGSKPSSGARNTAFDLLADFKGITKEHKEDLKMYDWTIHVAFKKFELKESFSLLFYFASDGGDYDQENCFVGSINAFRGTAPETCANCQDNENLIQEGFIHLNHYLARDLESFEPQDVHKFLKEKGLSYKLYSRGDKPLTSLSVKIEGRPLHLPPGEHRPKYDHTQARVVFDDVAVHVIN

[2] = Cytotoxicity against mouse B16-F10 cells assessed as cell viability at 50 ug/ml measured after 24 hrs by MTT assay relative to control; type: cell-based; settings: at 50 µg/mL, read-out: Activity
[3] = system: B16-F10; experiment: Cytotoxicity against mouse B16-F10 cells assessed as reduction in cell viability at 10 to 50 ug/ml measured after 24 hrs by MTT assay; type: cell-based; settings: b16-f10, 24 h, dose 10-50 µg/ml
[4] = system: B16-F10; experiment: Cytotoxicity against mouse B16-F10 cells assessed as reduction in cell viability upto 10 ug/ml measured after 24 hrs by MTT assay; type: cell-based; settings: b16-f10, 24 h, dose <=10 µg/ml
[5] = system: B16-F10; experiment: Anti-melanogenic activity in mouse B16-F10 cells assessed as reduction in alpha-MSH-induced tyrosinase expression at 10 uM incubated for 24 hrs by Western blot analysis; type: functional, cell-based
[6] = system: B16-F10; experiment: Anti-melanogenic activity against alpha-MSH-induced mouse B16-F10 cells assessed as reduction in melanin content at 10 uM incubated for 24 hrs […] relative to control; type: functional
[7] = system: B16-F10; experiment: Anti-melanogenic activity against alpha-MSH-induced mouse B16-F10 cells assessed as reduction in melanin content at 50 uM incubated for 24 hrs […] relative to control; type: functional
[8] = target: T1, Tyrosinase; experiment: Noncompetitive inhibition of mushroom tyrosinase assessed as dissociation constant using L-DOPA as substrate by Lineweaver-Burk plot analysis
[9] = system: B16-F10; experiment: Anti-melanogenic activity in mouse B16-F10 cells assessed as reduction in alpha-MSH-induced tyrosinase expression at 20 to 30 uM incubated for 24 hrs by Western blot analysis; type: functional, cell-based; settings: dose 20-30 µM
[10] = system: B16-F10; experiment: Anti-melanogenic activity in mouse B16-F10 cells assessed as reduction in alpha-MSH-induced tyrosinase expression at 50 uM incubated for 24 hrs by Western blot analysis; type: functional, cell-based
[11] = system: B16-F10; experiment: Anti-melanogenic activity against alpha-MSH-induced mouse B16-F10 cells assessed as reduction in melanin content at 20 uM incubated for 24 hrs […] relative to control; type: functional
[12] = system: B16-F10; experiment: Anti-melanogenic activity against alpha-MSH-induced mouse B16-F10 cells assessed as reduction in melanin content at 30 uM incubated for 24 hrs […] relative to control; type: functional
[13] = compound: COc1ccccc1-c1nnc(SCC(=O)Nc2ccccc2)o1; experiment: Noncompetitive inhibition of mushroom tyrosinase assessed as Km at 0.0017 uM using L-DOPA as substrate by Lineweaver-Burk plot analysis; settings: Agaricus bisporus
[14] = compound: COc1ccccc1-c1nnc(SCC(=O)Nc2ccccc2)o1; experiment: Noncompetitive inhibition of mushroom tyrosinase assessed as Vmax at 0.0033 uM using L-DOPA as substrate by Lineweaver-Burk plot analysis; settings: Agaricus bisporus
[15] = compound: COc1ccccc1-c1nnc(SCC(=O)Nc2ccccc2)o1; experiment: Noncompetitive inhibition of mushroom tyrosinase assessed as Vmax at 0.0066 uM using L-DOPA as substrate by Lineweaver-Burk plot analysis; settings: Agaricus bisporus
[16] = compound: COc1ccccc1-c1nnc(SCC(=O)Nc2ccccc2)o1; experiment: Noncompetitive inhibition of mushroom tyrosinase assessed as Km at 0.0066 uM using L-DOPA as substrate by Lineweaver-Burk plot analysis; settings: Agaricus bisporus
[17] = compound: COc1ccccc1-c1nnc(SCC(=O)Nc2ccccc2)o1; experiment: Noncompetitive inhibition of mushroom tyrosinase assessed as Vmax at 0.0017 uM using L-DOPA as substrate by Lineweaver-Burk plot analysis; settings: Agaricus bisporus
[18] = compound: COc1ccccc1-c1nnc(SCC(=O)Nc2ccccc2)o1; experiment: Noncompetitive inhibition of mushroom tyrosinase assessed as Km at 0.0033 uM using L-DOPA as substrate by Lineweaver-Burk plot analysis; settings: Agaricus bisporus

Molecule: O=C(CSc1nnc(-c2ccccc2)o1)Nc1ccc(F)cc1
IC50 [1]: 396 nM

Molecule: COc1cccc(-c2nnc(SCC(=O)Nc3ccc(I)cc3)o2)c1
IC50 [1]: 88 nM

Molecule: O=C(CSc1nnc(-c2ccccc2)o1)Nc1ccccc1
IC50 [1]: 231 nM

Molecule: COc1cccc(-c2nnc(SCC(=O)Nc3ccc(Br)cc3)o2)c1
IC50 [1]: 145 nM

Molecule: O=C(CSc1nnc(-c2ccccc2)o1)Nc1ccc(I)cc1
IC50 [1]: 85 nM

B1: Tyrosinase (Agaricus bisporus), O42713 (protein)
chain: MSLIATVGPTGGVKNRLNIVDFVKNEKFFTLYVRSLELLQAKEQHDYSSFFQLAGIHGLPFTEWAKERPSMNLYKAGYCTHGQVLFPTWHRTYLSVLEQILQGAAIEVAKKFTSNQTDWVQAAQDLRQPYWDWGFELMPPDEVIKNEEVNITNYDGKKISVKNPILRYHFHPIDPSFKPYGDFATWRTTVRNPDRNRREDIPGLIKKMRLEEGQIREKTYNMLKFNDAWERFSNHGISDDQHANSLESVHDDIHVMVGYGKIEGHMDHPFFAAFDPIFWLHHTNVDRLLSLWKAINPDVWVTSGRNRDGTMGIAPNAQINSETPLEPFYQSGDKVWTSASLADTARLGYSYPDFDKLVGGTKELIRDAIDDLIDERYGSKPSSGARNTAFDLLADFKGITKEHKEDLKMYDWTIHVAFKKFELKESFSLLFYFASDGGDYDQENCFVGSINAFRGTAPETCANCQDNENLIQEGFIHLNHYLARDLESFEPQDVHKFLKEKGLSYKLYSRGDKPLTSLSVKIEGRPLHLPPGEHRPKYDHTQARVVFDDVAVHVIN
Km [13]: 250 µM | Vmax [14]: 3.64 deltaA/s | Vmax [15]: 2.27 deltaA/s | Km [16]: 250 µM | Vmax [17]: 4.97 deltaA/s | Km [18]: 250 µM

Continued by falling IC50 [1], values first:

IC50 [1]: 46 nM
Molecule: COc1ccccc1-c1nnc(SCC(=O)Nc2ccc(Br)cc2)o1

IC50 [1]: 39 nM
Molecule: O=C(CSc1nnc(-c2ccccc2)o1)Nc1ccc(Br)cc1

IC50 [1]: 27 nM
Molecule: COc1cccc(-c2nnc(SCC(=O)Nc3ccc(F)cc3)o2)c1
Activity [3]: Toxic | Activity [4]: Non-Toxic

IC50 [1]: 23 nM
Molecule: COc1ccccc1-c1nnc(SCC(=O)Nc2ccc(I)cc2)o1
viability at 24 h, 50 ug/ml [2]: 80%

IC50 [1]: 19 nM
Molecule: COc1cccc(-c2nnc(SCC(=O)Nc3ccccc3)o2)c1
Activity [3]: Toxic | Activity [4]: Non-Toxic

IC50 [1]: 18 nM
Molecule: COc1ccccc1-c1nnc(SCC(=O)Nc2ccc(F)cc2)o1
viability at 24 h, 50 ug/ml [2]: 80%

Ki [8]: 3.1 nM | IC50 [1]: 3 nM
Molecule: COc1ccccc1-c1nnc(SCC(=O)Nc2ccccc2)o1
Activity [5]: Active | inhibition at 10 µM [6]: 16% | inhibition at 50 µM [7]: 78% | viability at 24 h, 50 ug/ml [2]: 80% | Activity [9]: Active | Activity [10]: Active | inhibition at 20 µM [11]: 62% | inhibition at 30 µM [12]: 77%
